Test results reported in ChEMBL document CHEMBL1681728, “An automated, polymer-assisted strategy for the preparation of urea and thiourea derivatives of 15-membered azalides as potential antimalarial chemotherapeutics” (Bioorg Med Chem, 2011).

What was measured:
Type in all cases: functional, organism-based
Plasmodium falciparum [1] = test: Antimalarial activity against multidrug-resistant Plasmodium falciparum TM91C235 assessed as inhibition of [3H]hypoxanthine incorporation after 96 hrs by microtiter plate scintillation counting
Plasmodium falciparum [2] = test: Antimalarial activity against chloroquine-sensitive Plasmodium falciparum D6 assessed as inhibition of [3H]hypoxanthine incorporation after 96 hrs by microtiter plate scintillation counting
Plasmodium falciparum [3] = test: Antimalarial activity against chloroquine-,pyrimethamine-resistant Plasmodium falciparum W2 assessed as inhibition of [3H]hypoxanthine incorporation after 96 hrs by microtiter plate scintillation counting

Row | SMILES | IC50 (Plasmodium falciparum [1]) [nM] | IC50 (Plasmodium falciparum [2]) [nM] | IC50 (Plasmodium falciparum [3]) [nM]
1 | CC[C@H]1OC(=O)[C@H](C)[C@@H](O[C@H]2C[C@@](C)(OC)[C@@H](O)[C@H](C)O2)[C@H](C)[C@@H](O[C@@H]2O[C@H](C)C[C@H](N(C)C)[C@H]2O)[C@](C)(O)C[C@@H](C)CN(CCCNC(=S)Nc2cc(Cl)cc(Cl)c2)[C@H](C)[C@@H](O)[C@]1(C)O | 55.4 | 116 | 42.5
2 | CC[C@H]1OC(=O)[C@H](C)[C@@H](O[C@H]2C[C@@](C)(OC)[C@@H](O)[C@H](C)O2)[C@H](C)[C@@H](O[C@@H]2O[C@H](C)C[C@H](N(C)C)[C@H]2O)[C@](C)(O)C[C@@H](C)CN(CCCNC(=S)Nc2ccc([N+](=O)[O-])cc2)[C@H](C)[C@@H](O)[C@]1(C)O | 51.3 | 103 | 37.1
3 | CC[C@H]1OC(=O)[C@H](C)[C@@H](O[C@H]2C[C@@](C)(OC)[C@@H](O)[C@H](C)O2)[C@H](C)[C@@H](O[C@@H]2O[C@H](C)C[C@H](N(C)C)[C@H]2O)[C@](C)(O)C[C@@H](C)CN(CCCNC(=S)Nc2cccc(C(F)(F)F)c2)[C@H](C)[C@@H](O)[C@]1(C)O | 54 | 120 | 30.3
4 | CC[C@H]1OC(=O)[C@H](C)[C@@H](O[C@H]2C[C@@](C)(OC)[C@@H](O)[C@H](C)O2)[C@H](C)[C@@H](O[C@@H]2O[C@H](C)C[C@H](N(C)C)[C@H]2O)[C@](C)(O)C[C@@H](C)CN(CCCNC(=S)NC(c2ccccc2)c2ccccc2)[C@H](C)[C@@H](O)[C@]1(C)O | 55 | 218 | 37.7
5 | CC[C@H]1OC(=O)[C@H](C)[C@@H](O[C@H]2C[C@@](C)(OC)[C@@H](O)[C@H](C)O2)[C@H](C)[C@@H](O[C@@H]2O[C@H](C)C[C@H](N(C)C)[C@H]2O)[C@](C)(O)C[C@@H](C)CN(CCCNC(=S)Nc2cccc(-c3ccccc3)c2OC)[C@H](C)[C@@H](O)[C@]1(C)O | 55.3 | 58.1 | 114
6 | CC[C@H]1OC(=O)[C@H](C)[C@@H](O[C@H]2C[C@@](C)(OC)[C@@H](O)[C@H](C)O2)[C@H](C)[C@@H](O[C@@H]2O[C@H](C)C[C@H](N(C)C)[C@H]2O)[C@](C)(O)C[C@@H](C)CN(CCCNC(=S)Nc2ccc(Cl)c(C(F)(F)F)c2)[C@H](C)[C@@H](O)[C@]1(C)O | 56.3 | 54.3 | 35
7 | CC[C@H]1OC(=O)[C@H](C)[C@@H](O[C@H]2C[C@@](C)(OC)[C@@H](O)[C@H](C)O2)[C@H](C)[C@@H](O[C@@H]2O[C@H](C)C[C@H](N(C)C)[C@H]2O)[C@](C)(O)C[C@@H](C)CN(CCCNC(=O)Nc2ccc3c(c2)OCCCO3)[C@H](C)[C@@H](O)[C@]1(C)O | 60 | 28.1 | 40.8
8 | CC[C@H]1OC(=O)[C@H](C)[C@@H](O[C@H]2C[C@@](C)(OC)[C@@H](O)[C@H](C)O2)[C@H](C)[C@@H](O[C@@H]2O[C@H](C)C[C@H](N(C)C)[C@H]2O)[C@](C)(O)C[C@@H](C)CN(CCCNC(=O)Nc2cccc3nsnc23)[C@H](C)[C@@H](O)[C@]1(C)O | 64.7 | 266 | 69.2
9 | CC[C@H]1OC(=O)[C@H](C)[C@@H](O[C@H]2C[C@@](C)(OC)[C@@H](O)[C@H](C)O2)[C@H](C)[C@@H](O[C@@H]2O[C@H](C)C[C@H](N(C)C)[C@H]2O)[C@](C)(O)C[C@@H](C)CN(CCCNC(=S)Nc2ccc(S(=O)(=O)N3CCCCC3)cc2)[C@H](C)[C@@H](O)[C@]1(C)O | 68 | 174 | 53
10 | CC[C@H]1OC(=O)[C@H](C)[C@@H](O[C@H]2C[C@@](C)(OC)[C@@H](O)[C@H](C)O2)[C@H](C)[C@@H](O[C@@H]2O[C@H](C)C[C@H](N(C)C)[C@H]2O)[C@](C)(O)C[C@@H](C)CN(CCCNC(=S)Nc2ccc([N+](=O)[O-])cc2OC)[C@H](C)[C@@H](O)[C@]1(C)O | 69.7 | 74.5 | 50.1
11 | CC[C@H]1OC(=O)[C@H](C)[C@@H](O[C@H]2C[C@@](C)(OC)[C@@H](O)[C@H](C)O2)[C@H](C)[C@@H](O[C@@H]2O[C@H](C)C[C@H](N(C)C)[C@H]2O)[C@](C)(O)C[C@@H](C)CN(CCCNC(=O)Nc2cccc(C(F)(F)F)c2)[C@H](C)[C@@H](O)[C@]1(C)O | 72.8 | 257 | 135
12 | CC[C@H]1OC(=O)[C@H](C)[C@@H](O[C@H]2C[C@@](C)(OC)[C@@H](O)[C@H](C)O2)[C@H](C)[C@@H](O[C@@H]2O[C@H](C)C[C@H](N(C)C)[C@H]2O)[C@](C)(O)C[C@@H](C)CN(CCCNC(=S)Nc2ccc(F)c(F)c2F)[C@H](C)[C@@H](O)[C@]1(C)O | 73.7 | 449 | 165
13 | CC[C@H]1OC(=O)[C@H](C)[C@@H](O[C@H]2C[C@@](C)(OC)[C@@H](O)[C@H](C)O2)[C@H](C)[C@@H](O[C@@H]2O[C@H](C)C[C@H](N(C)C)[C@H]2O)[C@](C)(O)C[C@@H](C)CN(CCCNC(=S)Nc2ccc(C#N)cc2)[C@H](C)[C@@H](O)[C@]1(C)O | 78.2 | 132 | 50
14 | CC[C@H]1OC(=O)[C@H](C)[C@@H](O[C@H]2C[C@@](C)(OC)[C@@H](O)[C@H](C)O2)[C@H](C)[C@@H](O[C@@H]2O[C@H](C)C[C@H](N(C)C)[C@H]2O)[C@](C)(O)C[C@@H](C)CN(CCCNC(=O)Nc2ccc(C(C)C)cc2)[C@H](C)[C@@H](O)[C@]1(C)O | 78.3 | 225 | 70.9
15 | CC[C@H]1OC(=O)[C@H](C)[C@@H](O[C@H]2C[C@@](C)(OC)[C@@H](O)[C@H](C)O2)[C@H](C)[C@@H](O[C@@H]2O[C@H](C)C[C@H](N(C)C)[C@H]2O)[C@](C)(O)C[C@@H](C)CN(CCCNC(=O)Nc2ccc(C(F)(F)F)cc2)[C@H](C)[C@@H](O)[C@]1(C)O | 84.2 | 160 | 74.6
16 | CC[C@H]1OC(=O)[C@H](C)[C@@H](O[C@H]2C[C@@](C)(OC)[C@@H](O)[C@H](C)O2)[C@H](C)[C@@H](O[C@@H]2O[C@H](C)C[C@H](N(C)C)[C@H]2O)[C@](C)(O)C[C@@H](C)CN(CCCNC(=S)Nc2ccc(Cl)c(Cl)c2)[C@H](C)[C@@H](O)[C@]1(C)O | 84.2 | 296 | 229
17 | CC[C@H]1OC(=O)[C@H](C)[C@@H](O[C@H]2C[C@@](C)(OC)[C@@H](O)[C@H](C)O2)[C@H](C)[C@@H](O[C@@H]2O[C@H](C)C[C@H](N(C)C)[C@H]2O)[C@](C)(O)C[C@@H](C)CN(CCCNC(=O)Nc2ccc(Cl)cc2)[C@H](C)[C@@H](O)[C@]1(C)O | 90.4 | 188 | 99.3
18 | CC[C@H]1OC(=O)[C@H](C)[C@@H](O[C@H]2C[C@@](C)(OC)[C@@H](O)[C@H](C)O2)[C@H](C)[C@@H](O[C@@H]2O[C@H](C)C[C@H](N(C)C)[C@H]2O)[C@](C)(O)C[C@@H](C)CN(CCCNC(=O)Nc2ccc3c(c2)CCC3)[C@H](C)[C@@H](O)[C@]1(C)O | 96.2 | 266 | 73.6
19 | CC[C@H]1OC(=O)[C@H](C)[C@@H](O[C@H]2C[C@@](C)(OC)[C@@H](O)[C@H](C)O2)[C@H](C)[C@@H](O[C@@H]2O[C@H](C)C[C@H](N(C)C)[C@H]2O)[C@](C)(O)C[C@@H](C)CN(CCCNC(=S)Nc2ccc(/N=N/c3ccccc3)cc2)[C@H](C)[C@@H](O)[C@]1(C)O | 96.3 | 107 | 47.9
